Measured values taken from patent publication US20150362491A1, “METHODS AND ASSAYS RELATING TO RNF216” (THE GENERAL HOSPITAL CORPORATION, priority 2013, published 2015).

What was measured:
[1] = test system: rnf216 and rnf216+otud4 (DMO) morphants; assay: in vivo zebrafish assay of neuronal survival and degeneration, SFN co-injected into morphants; conditions: for morphants with optic tectum defects: 3 dpf
Description: Zebrafish embryo injections. Zebrafish were maintained and mated according to standard procedures.^49 Wild-type zebrafish embryos were injected at the 1-4 cell stage with 1 nl diluted MO and 0.5% phenol red. […] For the epistatic interaction experiments, a cocktail containing 6 ng each of rnf216- and otud4-targeting MO was used.
(§1) Zebrafish embryo phenotyping. Injected embryos were scored at 3 days post fertilization for microphthalmia by measuring the area of the eye cup. For immunofluorescence studies, embryos were fixed in Dent's fixative (80% methanol, 20% dimethylsulfoxide) overnight at 4° C. After rehydration with decreasing series of methanol in PBS, the embryos were washed with PBS, permeabilized with 10 μg/ml proteinase K, and postfixed with 4% PFA. Embryos were then washed twice with IF buffer (0.1% Tween-20, 1% BSA in 1×PBS) for 10 min at room temperature. After incubation in blocking solution (10% FBS, 1% BSA in 1×PBS) for 1 h at room temperature, embryos were incubated with anti-α acetylated tubulin (1:1000; T7451, Sigma-Aldrich), overnight at 4° C. After two washes in IF buffer for 10 min, embryos were incubated with Alexa Fluor goat anti-mouse IgG (1:1000; A21207, A11001, Invitrogen) for 1 h at room temperature. Image acquisition and analysis was performed using Nikon NIS-Elements Advanced Research software. For each test, 50-100 embryos were injected and scored by two investigators who were blind to the injection cocktail. All experiments were performed 2-3 times and statistical significance was calculated using Student's t-test.
This hypothesis will be tested in Rnf216^−/− and Otud4^−/− mice.

[2] = test system: pituitary response to GnRH; assay: reproductive endocrine phenotyping with exogenous GnRH; format: in vivo, human
Description: Reproductive Endocrine Phenotyping. Subjects 2, 6, and 8 underwent blood sampling every 10-15 minutes for 3.25-12 h to examine the frequency, amplitude, and morphology of endogenous GnRH-induced luteinizing hormone (LH) pulse patterns. Pulses of LH secretion were identified using a modified version of the method of Santen and Bardin.^45-46 Subjects 1, 2, 6, and 8 received exogenous, pulsatile GnRH with monitoring of gonadotropin responses as described previously.^47-48 Hormone assays were performed as described in ref 48; the Second International Reference Preparation was used as the standard for LH and FSH.

[3] = test system: pituitary response to GnRH; conditions: Subject 3, cited from earlier work
[4] = test system: zebrafish embryos; assay: zebrafish embryo morpholino knock-down and human mRNA rescue phenotyping; format: in vivo; conditions: for organization of the cerebellum (axonal tracts) / size of the optic tectum: 3 d.p.f., anti-α acetylated tubulin staining
Description: Zebrafish Investigation. All experiments were carried out with the approval of the Institutional Animal Care and Use Committee. Morpholino oligos (MO) for silencing of zebrafish rnf216 and otud4 were injected either alone or with wild-type (WT) or mutant human mRNA for RNF216, OTUD4, or both.
Morpholino oligonucleotide design. Morpholino oligos were obtained from Gene Tools, LLC (Philomath, Oreg., USA). Reciprocal BLAST against the zebrafish genome identified a sole zebrafish ortholog of […] (ENSDARG00000087893, 59% similarity, 46% identity). The antisense MO used for the silencing of zebrafish rnf216 targeted the intron 5′ donor splice site of the gene: […] (SEQ ID NO: 7).
(§2) Similar to rnf216, a sole ortholog of the human transcript for OTUD4 was identified in zebrafish (73% similarity, 61% identity). […] The MO for otud4 targeted the donor splice site of intron 2: […] (SEQ ID NO: 8).
Zebrafish embryo injections. Zebrafish were maintained and mated according to standard procedures.^49 Wild-type zebrafish embryos were injected at the 1-4 cell stage with 1 nl diluted MO and 0.5% phenol red. A dose of 6 ng of rnf216 or otud4-targeting MO was used as it gave the best rate of silencing and the minimum rate of mortality among the tested working dilutions (4-10 ng). For the epistatic interaction experiments, a cocktail containing 6 ng each of rnf216- and otud4-targeting MO was used.
For RNA rescue experiments, human wild-type or mutant RNF216 (NM_207116.2) and OTUD4 (NM_001102653.1) were cloned into the pCS2+ expression vector and transcribed in vitro using the SP6 Message Machine Kit (Ambion) to produce capped mRNA, and 200 pg of mRNA was injected for the rescue experiments.
as §1

[5] = test system: otud4 endogenous transcript; assay: efficiency of the morpholinos (splicing of endogenous transcript, gel); format: in vivo, zebrafish; conditions: otud4 MO 4-10 ng; intron 5 retained
Description: FIG. 8B depicts a gel of the results of injection of the otud4 MO (4-10 ng), which reduces normal splicing of the endogenous transcript by 90% and favors aberrant splicing resulting in a transcript where intron 5 (73 bp in size) is retained.
as §2

[6] = treatment of rnf216 and DMO morphants with SFN

C[S@@+]([O-])CCCCN=C=S [SFN, 1-isothio-cyanato-4(R)-methylsulfinylbutane]
morphants with optic tectum defects ([1]; DMO (rnf216+otud4) morphants co-injected with SFN, from 41% without SFN, p<0.001): 15% | cerebellar disorganization phenotype ([1]; co-injection of SFN with DMO): failed to ameliorate | cerebellar disorganization phenotype ([1]; co-injection of SFN with rnf216 MO): failed to ameliorate | morphants with optic tectum defects ([1]; rnf216 morphants co-injected with SFN, from 32% without SFN, p<0.001): 15% | cerebellar degeneration phenotype (FIG. 10E) [1, 6]: not the cerebellar degeneration phenotype | optic tectum phenotype (FIG. 10D) [1, 6]: rescues the optic tectum phenotype

gonadotropin-releasing hormone (QHWSYGLRPG; Gonadoliberin-1; UniProt P01148 24-33, looked up) [GnRH]
LH response to exogenous GnRH at a standard dose ([2]; Subject 6): immediate robust increase in LH | testicular volumes ([2]; Subject 8, exogenous pulsatile GnRH 25 to 600 ng/kg q2 h over 2 y, from 2 mL): 8 mL | gonadotropin responses to pulsatile exogenous GnRH over 7 days ([2]; Subjects 1 and 2, bedridden, late in the course of disease): failed to exhibit gonadotropin responses | LH after GnRH ([3]; 90 min after GnRH, baseline 0.06 IU/L): 5.8 IU/L | FSH after GnRH ([3]; 120 min, baseline 0.14 IU/L): 2.0 IU/L

human RNF216 mRNA: capped wild-type human RNF216 (NM—207116.2) mRNA transcribed in vitro, 200 pg injected
rescue of the phenotypes induced by double MO injection ([4]; co-injection of mRNA with double MO): rescued all phenotypes | rescue of the tectal phenotype ([4]; co-injection of mRNA with rnf216 MO): fully rescued

otud4 MO: splice-blocking morpholino against zebrafish otud4: TACCCGAAGGAATTTGCGCACCATT (SEQ ID NO: 8) (all phosphorodiamidate morpholino (PMO))
organization of the cerebellum (axonal tracts) [4]: cerebellar defects | size of the optic tectum [4]: reduction in size of the optic tectum | reduction of normal splicing of the endogenous transcript [5]: 90%

rnf216 MO: antisense morpholino silencing zebrafish rnf216, donor splice site: CAGAAAATAGTTTGTGCTTACACAT (SEQ ID NO: 7) (all phosphorodiamidate morpholino (PMO))
morphants with optic tectum defects ([1]; morphants without SFN): 32% | organization of the cerebellum (axonal tracts) [4]: disorganization of axonal tracts in the cerebellum | size of the optic tectum [4]: reduction in size of the optic tectum
